US20230202980A1, “N-(2-Aminophenyl)-Prop-2-Enamide Derivatives, and Uses Thereof in the Treatment of Cancer” (National University of Singapore, priority 2019, published 2023)

How the values were obtained:
[1] = tested on: SNU-398 (SALL4 high) cells; experiment: SALL4 high/low phenotypic screen (cell viability, CellTiter-Glo), SALL4 high cells; format: cell-based; conditions: for IC50: Homo sapiens, SNU-398, read-out: IC50 in high SALL4 SNU398 cells; for IC50 / IC50 in high SALL4 SNU398 cells: SALL4 high/low phenotypic screen, 72 hrs; for fold less potent than the most active compounds: SALL4 high SNU398 cells
Description: (§1) SNU-387 empty vector, Tg:SALL4A, and Tg:SALL4B expressing isogenic cell lines were generated by transducing WT SNU-387 cells with empty vector, SALL4A or SALL4B FUW-Luc-mCh-puro lentiviral constructs^1. Cells were plated in 50 µl of RPMI culture media in 384-well white flat-bottom plates (Coming) and incubated at 37° C. in a humidified atmosphere of 5% CO2 overnight. Cell numbers per well were 1500 for SNU-398, and 750 for SNU-387 and SNU-387 isogenic lines. After overnight incubation, varying concentrations of compounds 1-80 were added to cells with multichannel electronic pipettes (Rainin). Cells were then incubated for 72 hrs at 37° C. in a humidified atmosphere of 5% CO2 before 10 µl of CellTiter-Glo reagent was added to the wells with the MultiFlo Microplate Dispenser (BioTek). Cells were incubated at room temperature for a mininuun of 10 minutes after which luminescence readings were recorded by an Infinite M1000 Microplate Reader (Tecan).
This testing was based on SALL4 high/low phenotypic screen as described herein. IC50 values noted for the compounds/groups above are based on ICso in high SALL4 SNU398 cells.
ALPHA assay measures binding between SALL4 and RBBp4, an inhibitor could block the binding and reflected in low reading of the ALPHA assay. FP assay also measures binding between SALL4 and RBBp4, an inhibitor results in […] reading. Cell-based assays are measuring cell viability with different concentration of compounds. Cell based 1299 refers to cell viability assay using H1299 cells; Cell-based SNU387 refers to cell viability assay using SNU387 cells; Cell based assay-SNU-398 refers to cell viability assay using SNU398 cells; Cell based MDA-MB231 refers to cell viability assay using MDA-MB231 cells.

[2] = Pharmacokinetic study, whole blood concentration by LC-MS/MS; format: in vivo, Swiss albino mice
Description: Compound 6 was dissolved in water containing 3% DMSO and 10% hydroxyl propyl-b-cyclodextrin (EncapsinTM) for the i.v. dose, and in water containing 5% DMSO and 9.5% Encapsin for the oral dose. Blood samples were collected at 0.083, 0.25, 0.5, 1, 2, 4, 6, 8 and 24 hrs. The whole blood concentration was measured by LC-MS/MS. From the oral route, 90% of compound 6 was cleared at 2 hrs. For the intravenous route, 90% of compound 6 was cleared at 4 hrs.

SALL4 RNA = SALL4 RNA expression down regulation (Q-PCR) in H661 cells; format: cell-based; conditions: 48 hrs
Description: Cells were treated with compound 6 at 1 µM and 2.5 µM. Amounts for other cmpds are shown. Cells were harvested at 48 hrs and the cell lysates were subjected to western blot analysis and Q-PCR analysis for SALL4 protein and RNA level respectively. […] As shown in the lower panel of FIG. 6, using Q-PCR, it was shown that SALL4 RNA level was reduced by Compound 6 in H661 cells.

PAMPA permeability assay = format: in vitro ADME; conditions: 50 µM, pION buffer, 4 hours
Description: (§2) Pan-HDAC binding assay measures HDAC inhibitory activity of a compound. Tubulin Polymerisation inhibition assays measure inhibition activity of a compound towards tubulin polymerization. SALL4 protein expression down regulation assay changed to western blot analysis, SALL4 RNA expression down regulation assay changed to real-time PCR assay. Permeability assay measures the (PAMPA) measures permeability of a compound across an artificial membrane. The microsomal stability assay measures rate of disappearance of a test compound over time in liver microsomes. In vivo PK assay measures biodistribution of the test compound in mice.
50 µM of Compound 6 prepared in pION buffer was added to bottom of UV plate. GIT-0 solution was added and the solution was incubated for 4 hours. The plate spectrum was read using spectrophotometer in scanning mode from 200 nm to 500 nm using PAMPA pION software.

SALL4 high tumor = experiment: In vivo xenotransplant testing in mice; conditions: treated mice, P<0.05
[3] = tested on: SNU-387 (SALL4 low) cells; experiment: SALL4 high/low phenotypic screen (cell viability, CellTiter-Glo), SALL4 low cells; format: cell-based; conditions: Example 1, see FIG. 2
Description: as §1
ALPHA assay measures binding between SALL4 and RBBp4, an inhibitor could block the binding and reflected in low reading of the ALPHA assay. FP assay also measures binding between SALL4 and RBBp4, an inhibitor results in […] reading. Cell-based assays are measuring cell viability with different concentration of compounds. […]

[4] = Metabolic stability using liver microsomes; format: in vitro ADME; conditions: 1 µM, 3.33 mg/ml liver microsomes, 2.5 mM NADPH
Description: as §2
1 µM of compound 6 was incubated with 3.33 mg/ml liver microsomes and 2.5 mM NADPH for 0, 5, 10, 30 and 60 minutes. The mixture were subjected to LC-MS/MS to measure remaining compound after the incubation.

SALL4 1-300 protein = molecular target: T1, SALL4 1-300 protein (Homo sapiens, UniProt Q9UJQ4); experiment: Thermal Shift Assay (fluorescence-based binding assay); conditions: SALL4 1-300 with 100 mM compound
T1 sequence (Q9UJQ4 1-300): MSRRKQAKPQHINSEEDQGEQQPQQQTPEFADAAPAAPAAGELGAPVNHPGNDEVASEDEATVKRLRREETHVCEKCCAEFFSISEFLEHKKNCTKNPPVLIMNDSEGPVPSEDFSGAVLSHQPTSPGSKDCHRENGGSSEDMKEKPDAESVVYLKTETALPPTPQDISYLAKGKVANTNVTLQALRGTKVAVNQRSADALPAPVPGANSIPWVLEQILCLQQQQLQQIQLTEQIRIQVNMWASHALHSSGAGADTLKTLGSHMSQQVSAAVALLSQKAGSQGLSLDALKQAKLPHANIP
Description: In the upper panel of FIG. 7, a fluorescence-based binding assay named Thermal Shift Assay was used to assess the binding of compound 6 to SALL4 1-300 protein based on changes in unfolding transition. […] In the lower panel of FIG. 7, compound 6 binding to SALL4 was accessed by 1H NMR Experiments and Saturation Transfer Difference (STD) using ^15N SALL4 1-300 and Compound 6. The samples were screened using Bruker BioSpin AVANCE II 600 MHz spectrometer equipped with a CPPTCI{ 19F} cryoprobe and SampleJet auto-sampler. Compound 6 weak binding event to SALL4 1-300 was identified based on the increase in transverse relaxation rate (R2) observed in the presence of SALL4 1-300 protein.

`COc1cc(Nc2ncccc2/C=C/C(=O)Nc2cc(C)ccc2N)cc(OC)c1OC` showed an IC50 [1] of 150 to 1000 nM.
With `COc1ccc(N)c(NC(=O)/C=C/c2cccnc2Nc2ccc(C(F)(F)F)cc2)c1` the IC50 [1] was ~25000 nM and the “fold less potent than the most active compounds” value [1] was “about 100 fold”.
For `COc1cc(Nc2ncccc2/C=C/C(=O)Nc2ccc(Cl)cc2N)cc(OC)c1OC` [Cmpd 6], the “compound cleared from whole blood” value ([2]; intravenous 5 mg/kg, at 4 hrs) was 90%, the “compound cleared from whole blood” value ([2]; oral 15 mg/kg, at 2 hrs) was 90% and the “SALL4 RNA level (Q-PCR)” value (SALL4 RNA) was “reduced”. For the same molecule, the “permeability in PAMPA assay” value (PAMPA permeability assay) was “high”, the xenograft size (SALL4 high tumor) was “significant (P<0.05) smaller” and the xenograft weight (SALL4 high tumor) was “significant (P<0.05) smaller”. For the same molecule, the “low SALL4 cell inhibition, concentration” value [3] was “high micromolar”, the “status in liver microsome assay (printed: permeability status)” value [4] was “medium” and the “metabolic stability in liver microsomes, %QH” value ([4]; 0-60 minutes) was 45.88 %QH. The “activity in high SALL4 cells” value ([1]; Example 1, see FIG. 2) was “sub-micromolar”, the “selectivity between SALL4 low and SALL4 high cells (FIG. 2)” value ([1]; SALL4 high vs SALL4 low cells) was “excellent” and the “EC50 / potency (FIG. 2)” value ([1]; cell-based screening, SALL4 high cells) was “excellent”. For the same molecule, the melting shift (SALL4 1-300 protein) was 4.7 °C.
With `Nc1ccc(Cl)cc1NC(=O)c1cccnc1Nc1ccc(F)cc1` the “IC50 in high SALL4 SNU398 cells” value [1] was “inactive”.
With `COc1cc(Nc2ncccc2/C=C/C(=O)Nc2cc(Cl)c(Cl)cc2N)cc(OC)c1OC` the IC50 [1] was 150 to 1000 nM.
With `Nc1ccc(F)cc1NC(=O)c1cccnc1Nc1ccc(F)cc1` the “IC50 in high SALL4 SNU398 cells” value [1] was “inactive”.
In the case of `COc1cc(Nc2ncccc2/C=C/C(=O)Nc2ccc(Cl)cc2N)cc(OC)c1OC` [drawing 157], the IC50 [1] is reported as 150 to 1000 nM.
For `COc1ccc(Nc2ncccc2/C=C/C(=O)Nc2cc(C)ccc2N)cc1`, the IC50 [1] was ~2000 nM and the “fold less potent than the most active compounds” value [1] was “about 10 fold”.
`COc1ccc(N)c(NC(=O)/C=C/c2cccnc2Nc2cc(OC)c(OC)c(OC)c2)c1` gave an IC50 [1] of 150 to 1000 nM.
